From the supplement of paper PMC10307832 come the findings set out here.

Common to all, as to assay: relative viability (nuclei count vs DMSO), 5 days (fraction); higher = more cells survive
Compound in experiment [1]: Cn1cc(-c2cnn3c(N)c(Br)c([C@@H]4CCCNC4)nc23)cn1 + C[C@@H](Oc1cc(-c2cnn(C3CCNCC3)c2)cnc1N)c1c(Cl)ccc(F)c1Cl [Crizotinib] (partner 1 µM)
The method, boiled down:
(§1)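 Relative viability equals treated-well nuclei counts divided by vehicle-well nuclei counts. Counts came from 4× images of lung cancer cell lines grown in 1536-well plates for 5 days after pin-tool dosing on the day after seeding. Dosing used one drug alone or a fixed anchor-drug dose plus five library-drug doses (not always all listed) in √10 steps, and values are medians of duplicate plates.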

Compound in experiment [2]: Cn1cc(-c2cnn3c(N)c(Br)c([C@@H]4CCCNC4)nc23)cn1 + Cc1cc(Nc2cc(N3CCN(C)CC3)nc(Sc3ccc(NC(=O)C4CC4)cc3)n2)n[nH]1 [Tozasertib] (partner 0.1 µM)
The procedure, abridged: as §1

Compound in experiment [3]: Cn1cc(-c2cnn3c(N)c(Br)c([C@@H]4CCCNC4)nc23)cn1 + C[C@]1(O)C[C@@H](c2nc(-c3ccc4ccc(-c5ccccc5)nc4c3)c3c(N)nccn32)C1 [Linsitinib] (partner 1 µM)
The procedure, abridged:
as §1

Compound in experiment [4]: Cn1cc(-c2cnn3c(N)c(Br)c([C@@H]4CCCNC4)nc23)cn1 + COc1cccc2cc(-c3nc([C@H]4CC[C@H](C(=O)O)CC4)n4ncnc(N)c34)[nH]c12 [OSI-027] (partner 0.5 µM)
The method, boiled down: as §1

Regarding LOU-NH91, the relative viability in experiment [1] (first compound 0.05 µM) was 0.727; in experiment [1] (first compound 0.1581 µM), 0.724; in experiment [1] (first compound 0.5 µM), 0.739; in experiment [1] (first compound 1.581 µM), 0.713; in experiment [1] (first compound 5 µM) it was 0.626; in experiment [2] (first compound 0.05 µM), 0.585. The relative viability in experiment [2] (first compound 0.1581 µM) stood at 0.585; in experiment [2] (first compound 0.5 µM), 0.609; in experiment [2] (first compound 1.581 µM), 0.683; in experiment [2] (first compound 5 µM), 0.497; in experiment [3] (first compound 0.05 µM), 0.963; in experiment [3] (first compound 0.1581 µM), 0.868. Further, the relative viability in experiment [3] (first compound 0.5 µM) is 0.929; in experiment [3] (first compound 1.581 µM) it was 0.899; in experiment [3] (first compound 5 µM), 0.734; in experiment [4] (first compound 0.05 µM), 0.752; in experiment [4] (first compound 0.1581 µM) it was 0.711; in experiment [4] (first compound 0.5 µM), 0.684. The relative viability in experiment [4] (first compound 1.581 µM) worked out at 0.727; in experiment [4] (first compound 5 µM), 0.701.
Take NCI-H2347: the relative viability in experiment [1] (first compound 0.05 µM) is 0.63; in experiment [1] (first compound 0.1581 µM), 0.588; in experiment [1] (first compound 0.5 µM), 0.788; in experiment [1] (first compound 1.581 µM) it was 0.668; in experiment [1] (first compound 5 µM), 0.637; in experiment [2] (first compound 0.05 µM) it was 0.539. The relative viability in experiment [2] (first compound 0.1581 µM) is 0.563; in experiment [2] (first compound 0.5 µM), 0.518; in experiment [2] (first compound 1.581 µM), 0.49; in experiment [2] (first compound 5 µM), 0.44; in experiment [3] (first compound 0.05 µM), 0.992; in experiment [3] (first compound 0.1581 µM), 1.01. The relative viability was 0.986 in experiment [3] (first compound 0.5 µM); 0.917 in experiment [3] (first compound 1.581 µM); 0.85 in experiment [3] (first compound 5 µM); 0.418 in experiment [4] (first compound 0.05 µM); 0.594 in experiment [4] (first compound 0.1581 µM); 0.291 in experiment [4] (first compound 0.5 µM). For the same cell line, the relative viability in experiment [4] (first compound 1.581 µM) was found to be 0.377; in experiment [4] (first compound 5 µM), 0.326.
Turning to NCI-H2126, the relative viability in experiment [1] (first compound 0.05 µM) amounted to 1.1; in experiment [1] (first compound 0.1581 µM), 1.09; in experiment [1] (first compound 0.5 µM) it was 1.07; in experiment [1] (first compound 1.581 µM), 0.932; in experiment [1] (first compound 5 µM), 1.03; in experiment [2] (first compound 0.05 µM), 0.809. Further, the relative viability in experiment [2] (first compound 0.1581 µM) turned out to be 0.819; in experiment [2] (first compound 0.5 µM), 0.774; in experiment [2] (first compound 1.581 µM) it was 0.611; in experiment [2] (first compound 5 µM), 0.644; in experiment [3] (first compound 0.05 µM) it was 0.842; in experiment [3] (first compound 0.1581 µM), 0.723. Moreover, the relative viability in experiment [3] (first compound 0.5 µM) was 0.714; in experiment [3] (first compound 1.581 µM) it was 0.666; in experiment [3] (first compound 5 µM), 0.686; in experiment [4] (first compound 0.05 µM), 0.715; in experiment [4] (first compound 0.1581 µM), 0.744; in experiment [4] (first compound 0.5 µM) it was 0.74. Also, the relative viability in experiment [4] (first compound 1.581 µM) turned out to be 0.673; in experiment [4] (first compound 5 µM), 0.672.
In the case of HCC-827, the relative viability in experiment [1] (first compound 0.05 µM) was found to be 0.929; in experiment [1] (first compound 0.1581 µM), 1; in experiment [1] (first compound 0.5 µM), 0.909; in experiment [1] (first compound 1.581 µM) it was 0.899; in experiment [1] (first compound 5 µM), 0.871; in experiment [2] (first compound 0.05 µM) it was 0.426. The relative viability in experiment [2] (first compound 0.1581 µM) stood at 0.392; in experiment [2] (first compound 0.5 µM), 0.439; in experiment [2] (first compound 1.581 µM), 0.516; in experiment [2] (first compound 5 µM), 0.394; in experiment [3] (first compound 0.05 µM), 0.934; in experiment [3] (first compound 0.1581 µM) it was 0.958. Besides, the relative viability was found to be 0.947 in experiment [3] (first compound 0.5 µM); 1.05 in experiment [3] (first compound 1.581 µM); 0.953 in experiment [3] (first compound 5 µM); 0.731 in experiment [4] (first compound 0.05 µM); 0.907 in experiment [4] (first compound 0.1581 µM); 0.71 in experiment [4] (first compound 0.5 µM). Besides, the relative viability worked out at 0.715 in experiment [4] (first compound 1.581 µM) and 0.705 in experiment [4] (first compound 5 µM).
For NCI-H3122, the relative viability in experiment [1] (first compound 0.05 µM) was determined as 0.305; in experiment [1] (first compound 0.1581 µM), 0.275; in experiment [1] (first compound 0.5 µM) it was 0.255; in experiment [1] (first compound 1.581 µM), 0.273; in experiment [1] (first compound 5 µM), 0.263; in experiment [2] (first compound 0.05 µM), 0.508. In addition, the relative viability was 0.403 in experiment [2] (first compound 0.1581 µM); 0.401 in experiment [2] (first compound 0.5 µM); 0.283 in experiment [2] (first compound 1.581 µM); 0.329 in experiment [2] (first compound 5 µM); 1.02 in experiment [3] (first compound 0.05 µM); 1.06 in experiment [3] (first compound 0.1581 µM). For the same cell line, the relative viability was found to be 0.964 in experiment [3] (first compound 0.5 µM); 1.08 in experiment [3] (first compound 1.581 µM); 1.09 in experiment [3] (first compound 5 µM); 1.26 in experiment [4] (first compound 0.05 µM); 1.06 in experiment [4] (first compound 0.1581 µM); 0.987 in experiment [4] (first compound 0.5 µM). Also, the relative viability was 0.543 in experiment [4] (first compound 1.581 µM) and 0.929 in experiment [4] (first compound 5 µM).
On to HOP-62, for which the relative viability is 0.999 in experiment [1] (first compound 0.05 µM); 1.07 in experiment [1] (first compound 0.1581 µM); 1.01 in experiment [1] (first compound 0.5 µM); 0.925 in experiment [1] (first compound 1.581 µM); 0.884 in experiment [1] (first compound 5 µM); 0.334 in experiment [2] (first compound 0.05 µM). Besides, the relative viability in experiment [2] (first compound 0.1581 µM) was determined as 0.348; in experiment [2] (first compound 0.5 µM), 0.335; in experiment [2] (first compound 1.581 µM) it was 0.252; in experiment [2] (first compound 5 µM) it was 0.249; in experiment [3] (first compound 0.05 µM), 1.17; in experiment [3] (first compound 0.1581 µM), 1.08. Besides, the relative viability in experiment [3] (first compound 0.5 µM) worked out at 0.693; in experiment [3] (first compound 1.581 µM), 0.873; in experiment [3] (first compound 5 µM), 0.956; in experiment [4] (first compound 0.05 µM) it was 0.831; in experiment [4] (first compound 0.1581 µM), 1.08; in experiment [4] (first compound 0.5 µM) it was 0.825. Further, the relative viability in experiment [4] (first compound 1.581 µM) worked out at 0.555; in experiment [4] (first compound 5 µM), 0.562.
With HCC-44, the relative viability in experiment [1] (first compound 0.05 µM) stood at 0.906; in experiment [1] (first compound 0.1581 µM) it was 1.02; in experiment [1] (first compound 0.5 µM), 0.913; in experiment [1] (first compound 1.581 µM) it was 0.86; in experiment [1] (first compound 5 µM) it was 0.789; in experiment [2] (first compound 0.1581 µM), 0.875. Moreover, the relative viability in experiment [2] (first compound 0.5 µM) worked out at 1.12; in experiment [2] (first compound 1.581 µM) it was 0.637; in experiment [2] (first compound 5 µM), 0.618; in experiment [3] (first compound 0.05 µM), 0.685; in experiment [3] (first compound 0.1581 µM) it was 0.872; in experiment [3] (first compound 0.5 µM), 0.821. Moreover, the relative viability in experiment [3] (first compound 1.581 µM) worked out at 0.65; in experiment [3] (first compound 5 µM), 0.631; in experiment [4] (first compound 0.1581 µM), 0.604; in experiment [4] (first compound 0.5 µM), 0.683; in experiment [4] (first compound 1.581 µM), 0.414; in experiment [4] (first compound 5 µM), 0.434.
